Experimental data published in US10670605B2, “Cysteine reactive probes and uses thereof” (The Scripps Research Institute, priority 2015, dated 2020).

Tests used:
Experiment in all cases: Competitive isoTOP-ABPP in situ (fragment-treated cells)
Format in all cases: cell-based
[1] = biological target: T1, cysteines in MDA-MB-231 and Ramos cells (Homo sapiens, UniProt P29590)
T1 sequence (P29590 1-882): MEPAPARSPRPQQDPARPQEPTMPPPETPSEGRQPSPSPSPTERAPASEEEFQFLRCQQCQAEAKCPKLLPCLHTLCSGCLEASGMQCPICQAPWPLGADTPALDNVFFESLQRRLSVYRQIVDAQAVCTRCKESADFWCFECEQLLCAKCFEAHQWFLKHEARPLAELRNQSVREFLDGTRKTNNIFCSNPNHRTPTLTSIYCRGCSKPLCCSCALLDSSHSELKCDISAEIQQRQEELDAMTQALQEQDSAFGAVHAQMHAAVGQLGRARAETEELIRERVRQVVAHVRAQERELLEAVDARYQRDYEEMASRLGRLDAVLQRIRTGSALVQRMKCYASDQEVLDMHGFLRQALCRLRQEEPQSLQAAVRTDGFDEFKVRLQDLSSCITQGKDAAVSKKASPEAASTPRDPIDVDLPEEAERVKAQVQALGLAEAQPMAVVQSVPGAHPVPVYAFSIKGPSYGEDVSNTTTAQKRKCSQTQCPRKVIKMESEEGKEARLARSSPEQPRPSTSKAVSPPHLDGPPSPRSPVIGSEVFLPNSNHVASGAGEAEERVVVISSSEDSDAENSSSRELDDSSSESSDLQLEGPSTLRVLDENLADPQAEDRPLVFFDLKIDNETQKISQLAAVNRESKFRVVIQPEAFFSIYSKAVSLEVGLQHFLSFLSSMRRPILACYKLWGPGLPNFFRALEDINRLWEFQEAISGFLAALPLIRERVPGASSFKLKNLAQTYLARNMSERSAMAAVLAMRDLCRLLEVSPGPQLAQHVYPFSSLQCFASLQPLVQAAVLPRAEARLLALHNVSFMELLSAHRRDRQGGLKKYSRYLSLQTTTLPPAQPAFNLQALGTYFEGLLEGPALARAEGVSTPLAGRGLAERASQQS

[2] = biological target: cysteines in MDA-MB-231 and Ramos cells (Homo sapiens, UniProt Q96FX7)
Chain of cysteines in MDA-MB-231 and Ramos cells (Homo sapiens, UniProt Q96FX7) (Q96FX7 whole entry): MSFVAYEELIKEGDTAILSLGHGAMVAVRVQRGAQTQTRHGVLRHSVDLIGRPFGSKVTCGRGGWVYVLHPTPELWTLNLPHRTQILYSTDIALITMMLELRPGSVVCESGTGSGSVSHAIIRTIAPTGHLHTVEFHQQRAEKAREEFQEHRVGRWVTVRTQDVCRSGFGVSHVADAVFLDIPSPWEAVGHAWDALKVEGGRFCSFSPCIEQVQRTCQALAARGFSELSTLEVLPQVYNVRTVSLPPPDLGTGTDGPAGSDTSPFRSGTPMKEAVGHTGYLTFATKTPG

[3] = biological target: T2, cysteines in MDA-MB-231 and Ramos cells (Homo sapiens, UniProt Q9NTX5)
T2 sequence (Q9NTX5 1-307): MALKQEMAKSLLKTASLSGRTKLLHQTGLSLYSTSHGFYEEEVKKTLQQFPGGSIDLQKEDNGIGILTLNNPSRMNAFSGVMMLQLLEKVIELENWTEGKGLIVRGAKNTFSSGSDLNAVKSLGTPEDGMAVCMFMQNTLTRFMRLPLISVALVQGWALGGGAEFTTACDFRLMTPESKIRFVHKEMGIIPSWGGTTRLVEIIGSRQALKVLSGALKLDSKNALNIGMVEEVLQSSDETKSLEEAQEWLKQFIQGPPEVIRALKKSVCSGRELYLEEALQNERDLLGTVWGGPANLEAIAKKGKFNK

[4] = biological target: T3, cysteines in MDA-MB-231 and Ramos cells (Homo sapiens, UniProt Q9UPQ0)
T3 sequence (Q9UPQ0 1-1083): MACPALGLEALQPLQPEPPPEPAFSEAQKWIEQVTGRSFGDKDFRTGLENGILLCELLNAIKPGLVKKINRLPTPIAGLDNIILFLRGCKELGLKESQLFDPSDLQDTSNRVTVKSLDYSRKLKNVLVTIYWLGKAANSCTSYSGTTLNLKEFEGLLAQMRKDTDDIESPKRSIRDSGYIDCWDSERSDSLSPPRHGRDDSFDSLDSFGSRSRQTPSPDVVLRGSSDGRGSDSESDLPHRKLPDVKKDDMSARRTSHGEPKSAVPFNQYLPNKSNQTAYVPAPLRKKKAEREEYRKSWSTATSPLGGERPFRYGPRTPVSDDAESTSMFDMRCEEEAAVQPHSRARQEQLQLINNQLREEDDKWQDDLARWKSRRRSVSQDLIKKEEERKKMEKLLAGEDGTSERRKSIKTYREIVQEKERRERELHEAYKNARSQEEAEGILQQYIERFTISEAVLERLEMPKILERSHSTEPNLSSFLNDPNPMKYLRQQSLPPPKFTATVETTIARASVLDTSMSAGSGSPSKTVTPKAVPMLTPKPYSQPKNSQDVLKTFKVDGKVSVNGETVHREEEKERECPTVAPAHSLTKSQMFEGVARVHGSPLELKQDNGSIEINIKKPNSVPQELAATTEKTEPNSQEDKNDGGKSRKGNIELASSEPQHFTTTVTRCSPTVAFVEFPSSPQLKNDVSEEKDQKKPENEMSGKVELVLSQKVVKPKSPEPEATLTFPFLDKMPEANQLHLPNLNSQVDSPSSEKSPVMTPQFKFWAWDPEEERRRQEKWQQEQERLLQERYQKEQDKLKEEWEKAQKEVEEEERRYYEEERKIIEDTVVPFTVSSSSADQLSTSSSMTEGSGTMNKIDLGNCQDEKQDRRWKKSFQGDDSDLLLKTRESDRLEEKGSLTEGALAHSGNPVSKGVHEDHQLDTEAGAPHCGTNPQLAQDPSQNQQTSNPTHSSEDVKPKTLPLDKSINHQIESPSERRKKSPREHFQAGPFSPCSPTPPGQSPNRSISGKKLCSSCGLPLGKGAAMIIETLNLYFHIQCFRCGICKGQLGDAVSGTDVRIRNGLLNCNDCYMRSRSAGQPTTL

[5] = biological target: cysteines in MDA-MB-231 and Ramos cells (Homo sapiens, UniProt Q96RP9); conditions: for isoTOP-ABPP ratio, cysteine Q96RP9_C153 / isoTOP-ABPP ratio Q96RP9_C153: 200 μM, insitu
Chain of cysteines in MDA-MB-231 and Ramos cells (Homo sapiens, UniProt Q96RP9) (Q96RP9 37-751): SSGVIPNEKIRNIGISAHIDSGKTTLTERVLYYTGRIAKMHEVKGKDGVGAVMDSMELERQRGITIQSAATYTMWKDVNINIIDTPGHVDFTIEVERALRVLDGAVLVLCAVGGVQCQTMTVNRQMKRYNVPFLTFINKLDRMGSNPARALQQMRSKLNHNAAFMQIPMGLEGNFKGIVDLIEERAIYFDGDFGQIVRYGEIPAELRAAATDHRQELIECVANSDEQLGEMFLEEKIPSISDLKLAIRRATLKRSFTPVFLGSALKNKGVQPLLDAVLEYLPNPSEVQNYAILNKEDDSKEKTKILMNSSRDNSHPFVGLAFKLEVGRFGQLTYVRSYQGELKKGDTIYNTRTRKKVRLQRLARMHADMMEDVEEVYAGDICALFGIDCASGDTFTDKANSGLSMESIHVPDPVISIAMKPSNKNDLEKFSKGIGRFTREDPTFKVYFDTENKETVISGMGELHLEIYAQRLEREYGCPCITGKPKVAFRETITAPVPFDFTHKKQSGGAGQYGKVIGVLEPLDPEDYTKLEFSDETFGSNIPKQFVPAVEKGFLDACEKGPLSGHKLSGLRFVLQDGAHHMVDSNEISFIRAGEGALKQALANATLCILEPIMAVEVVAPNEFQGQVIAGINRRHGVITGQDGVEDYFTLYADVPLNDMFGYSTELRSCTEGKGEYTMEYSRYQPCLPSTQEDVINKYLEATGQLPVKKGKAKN

[6] = biological target: T4, cysteines in MDA-MB-231 and Ramos cells (Homo sapiens, UniProt Q5TFE4); conditions: 200 μM, insitu
T4 sequence (Q5TFE4 1-455): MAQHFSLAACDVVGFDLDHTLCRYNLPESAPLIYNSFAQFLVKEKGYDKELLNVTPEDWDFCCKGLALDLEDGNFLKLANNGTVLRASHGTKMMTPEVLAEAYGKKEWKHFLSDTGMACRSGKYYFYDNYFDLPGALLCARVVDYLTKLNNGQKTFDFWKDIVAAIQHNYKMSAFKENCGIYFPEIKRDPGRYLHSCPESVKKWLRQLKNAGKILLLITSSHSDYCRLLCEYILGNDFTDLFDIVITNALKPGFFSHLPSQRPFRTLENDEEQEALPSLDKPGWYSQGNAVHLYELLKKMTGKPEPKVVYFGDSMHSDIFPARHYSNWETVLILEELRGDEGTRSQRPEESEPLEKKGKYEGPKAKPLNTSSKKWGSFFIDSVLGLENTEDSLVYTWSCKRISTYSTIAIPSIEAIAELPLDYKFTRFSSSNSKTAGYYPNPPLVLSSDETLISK

COc1ccc2c(c1)CCCN2C(=O)CCl [compound 2]
isoTOP-ABPP reactivity P29590_C389 PML ([1]; 200 μM, insitu, 231): 15.6
isoTOP-ABPP reactivity Q96FX7_C209 TRMT61A ([2]; 200 μM, insitu, 231): 20.0
isoTOP-ABPP reactivity Q9NTX5_C133 ECHDC1 ([3]; 200 μM, insitu, 231): 1.5
isoTOP-ABPP reactivity Q9UPQ0_C140 LIMCH1 ([4]; 200 μM, insitu, 231): 20.0

COc1ccc(C2CC(c3cccs3)=NN2C(=O)CCl)cc1 (stereo not shown) [compound 4]
isoTOP-ABPP reactivity Q96FX7_C209 TRMT61A ([2]; 100 μM in situ 231): 2.4
isoTOP-ABPP reactivity Q96RP9_C153 GFM1 ([5]; 100 μM in situ 231): 1.0
isoTOP-ABPP reactivity Q9NTX5_C133 ECHDC1 ([3]; 100 μM in situ 231): 1.7

COc1cc2c(cc1OC)CN(C(=O)CCl)CC2 [compound 8]
isoTOP-ABPP reactivity Q9NTX5_C133 ECHDC1 ([3]; 200 μM, insitu, 231): 2.0
isoTOP-ABPP reactivity Q9UPQ0_C140 LIMCH1 ([4]; 200 μM, insitu, 231): 20.0

O=C(CCl)N1CCC(Cc2ccccc2)CC1 [compound 9]
isoTOP-ABPP reactivity Q5TFE4_C119 NT5DC1 [6]; 231: 20.0

O=C(CCl)N1CCN(S(=O)(=O)c2ccccc2F)CC1 [compound 10]
isoTOP-ABPP ratio, cysteine Q5TFE4_C119 ([6]; ramos): 20.0
isoTOP-ABPP ratio P29590_C389 ([1]; 200 μM, insitu, 231): 7.9
isoTOP-ABPP ratio, cysteine Q96RP9_C153 [5]; 231: 14.8
isoTOP-ABPP ratio Q9NTX5_C133 ([3]; 200 μM, insitu, 231): 1.6
isoTOP-ABPP ratio Q9UPQ0_C140 ([4]; 200 μM, insitu, 231): 3.9

Cn1cc(S(=O)(=O)N2CCOCC2)cc1C(=O)NC(=O)CCl [compound 11]
isoTOP-ABPP ratio P29590_C389 ([1]; 100 μM in situ 231): 0.5
isoTOP-ABPP ratio Q9NTX5_C133 ([3]; 100 μM in situ 231): 1.0
isoTOP-ABPP ratio Q9UPQ0_C140 ([4]; 100 μM in situ 231): 1.0

O=C(CCl)NC(=O)NC12CC3CC(CC(C3)C1)C2 [compound 12]
isoTOP-ABPP ratio, cysteine Q96FX7_C209 ([2]; 200 μM, insitu, 231): 20.0
isoTOP-ABPP ratio, cysteine Q96RP9_C153 [5]; 231: 20.0
isoTOP-ABPP ratio Q9NTX5_C133 ([3]; 200 μM, insitu, 231): 1.2
isoTOP-ABPP ratio Q9UPQ0_C140 ([4]; 200 μM, insitu, 231): 1.9

O=C(CCl)NCCc1c[nH]c2ccccc12 [compound 13]
isoTOP-ABPP ratio, cysteine Q5TFE4_C119 ([6]; ramos): 1.7
isoTOP-ABPP ratio P29590_C389 ([1]; 200 μM, insitu, 231): 1.3
isoTOP-ABPP ratio, cysteine Q96FX7_C209 ([2]; 200 μM, insitu, 231): 2.1
isoTOP-ABPP ratio, cysteine Q96FX7_C209 ([2]; 200 μM, insitu, ramos): 6.8
isoTOP-ABPP ratio, cysteine Q96RP9_C153 ([5]; ramos): 0.8
isoTOP-ABPP ratio Q9NTX5_C133 ([3]; 200 μM, insitu, 231): 1.1
isoTOP-ABPP ratio Q9UPQ0_C140 ([4]; 200 μM, insitu, 231): 1.1

O=C(CCl)NC12CC3CC(CC(C3)C1)C2 [compound 21]
isoTOP-ABPP ratio, cysteine Q5TFE4_C119 [6]; 231: 1.2
isoTOP-ABPP ratio P29590_C389 ([1]; 200 μM, insitu, 231): 20.0
isoTOP-ABPP ratio, cysteine Q96FX7_C209 ([2]; 200 μM, insitu, 231): 2.0
isoTOP-ABPP ratio, cysteine Q96RP9_C153 [5]; 231: 1.4
isoTOP-ABPP ratio Q9NTX5_C133 ([3]; 200 μM, insitu, 231): 1.1
isoTOP-ABPP ratio Q9UPQ0_C140 ([4]; 200 μM, insitu, 231): 0.8

CC(C)CCOCCNC(=O)CCl [compound 27]
isoTOP-ABPP ratio P29590_C389 ([1]; 200 μM, insitu, 231): 0.5
reactivity profile of liganded cysteine P29590_C213 with fragment electrophile (isoTOP-ABPP ratio) ([1]; cysteine P29590_C213, fragment 200 μM, in situ, 231 (MDA-MB-231) cells): 0.8
isoTOP-ABPP ratio Q96RP9_C153 [5]; 231: 1.6
isoTOP-ABPP ratio Q9NTX5_C133 ([3]; 200 μM, insitu, 231): 1.5
isoTOP-ABPP ratio Q9UPQ0_C140 ([4]; 200 μM, insitu, 231): 0.7

O=C(CCl)N1CCN(CC(=O)N2CCOCC2)CC1 [compound 29]
isoTOP-ABPP ratio Q96RP9_C153 ([5]; ramos): 1.2

C=CC(=O)N(Cc1cccnc1)c1cc(C(F)(F)F)cc(C(F)(F)F)c1 [compound 31]
isoTOP-ABPP ratio Q5TFE4_C119 [6]; 231: 3.1
isoTOP-ABPP ratio P29590_C389 ([1]; 200 μM, insitu, 231): 1.1

C=CC(=O)Nc1cc(F)c(N2CCN(C(=O)OC(C)(C)C)CC2)c(F)c1 [compound 38]
isoTOP-ABPP ratio P29590_C389 ([1]; 200 μM, insitu, 231): 2.2
isoTOP-ABPP ratio Q96FX7_C209 ([2]; 200 μM, insitu, 231): 1.0
isoTOP-ABPP ratio Q9UPQ0_C140 ([4]; 200 μM, insitu, 231): 2.5

Cc1ccc(C=C(C#N)C(=O)NCCN2CCOCC2)cc1 [compound 41]
isoTOP-ABPP ratio Q5TFE4_C119 [6]; 231: 0.5
isoTOP-ABPP ratio P29590_C389 ([1]; 200 μM, insitu, 231): 0.4
isoTOP-ABPP ratio Q96RP9_C153 [5]; 231: 1.1
isoTOP-ABPP ratio Q9UPQ0_C140 ([4]; 200 μM, insitu, 231): 0.5

CC1CCc2ccccc2N1C(=O)CCl (stereo not shown) [compound 45]
isoTOP-ABPP ratio P29590_C389 ([1]; 200 μM, insitu, 231): 3.4
isoTOP-ABPP ratio Q96FX7_C209 ([2]; 200 μM, insitu, 231): 20.0
isoTOP-ABPP ratio Q9NTX5_C133 ([3]; 200 μM, insitu, 231): 4.2
isoTOP-ABPP ratio Q9UPQ0_C140 ([4]; 200 μM, insitu, 231): 20.0

O=C(CCl)Nc1cccc2ncccc12 [compound 51]
isoTOP-ABPP ratio P29590_C389 ([1]; 200 μM, insitu, 231): 0.9
